Measurements: patent publication US12337042B2, “Structural optimization method to improve the theranostic performance of peptide receptor-targeted radionuclide therapy for cancers” (University of Iowa Research Foundation, priority 2020, dated 2025)
Like-named read-outs stand apart in the source and are kept apart here.

Columns and labels:
[1] = target: T1, SSTR2-positive AR42J cells (Rattus norvegicus, UniProt P30680); test: ^125I-TOC competitive binding assay in AR42J cells
T1 construct: endogenous in cells; host or cells: AR42J rat pancreatic acinar cells
Method: ^125I-TOC Competitive Binding Assay
TOC was labeled with iodine-125 (^125I) by conventional chloramine T method as described elsewhere (23). 1.0×10^5 AR42J rat pancreatic acinar cells were plated into poly-D-lysine-coated 24-well plates. […] The cells were then washed twice with ice-cold PBS and lysed with 0.5 N NaOH, and the radioactivity was measured via a gamma counter. The half maximal inhibitory concentration (IC50) was determined using GraphPad Prism V8.0.

[2] = ^212Pb-PSC-PEG2-TOC toxicity studies with escalating doses; type: in vivo, CD-1 Elite (SOPF) male mice
Excerpt: FIG. 12A-12F. Dosimetry and toxicities of escalated doses (up to 150 μCi) of ^212Pb—PSC-PEG2-TOC in CD-1 Elite (SOPF) male mice. (A) Body weight change after the injection of ^212Pb-PSC-PEG2-TOC. […] (B) ^212Pb-PSC-PEG2-TOC biodistribution in CD-1 Elite (SOPF) male mice. ^212Pb is used for the study to include the impact of potential demetallation of ^212Pb and redistribution in bone marrow. (C) Estimated renal dose arising from the escalating doses of ^212Pb-PSC-PEG2-TOC based on the biodistribution in CD-1 Elite (SOPF) male mice. Organ level internal dose assessment (OLINDA) V2.1 was used for dose estimation in mice using 30 g mouse voxel phantom model. (D-E) The levels of renal toxicity markers arising from the escalating doses of ^212Pb-PSC-PEG2-TOC assessed by urine neutrophil gelatinase-associated lipocalin (uNGAL; D) at day 1 and day 3 post-administration and blood urea nitrogen (BUN; E) at 3 months post-administration.
^212Pb-PSC-PEG2-TOC Toxicity Studies
Escalating doses (0, 0.37, 1.85, 3.33, and 5.55 MBq or 0, 10, 50, 90, and 150 μCi) of ^212Pb-PSC-PEG2-TOC were administered to tumor-free CD-1 Elite (SOPF) male mice (n=4 for each group). Body weight was measured 2 times a week by 3 weeks post-injection and 1 time a week afterwards. Urine samples were collected (via metabolic case) at day 1 and day 3 post-administration to evaluate acute tubular toxicities in kidneys. […]

[3] = AR42J cells, 2 hours at 37° C., mean ± spread, read-out: IC50, competitive inhibition of ^125I-tyr^3-octreotide (^125I-TOC) binding

T1 sequence (P30680 whole entry): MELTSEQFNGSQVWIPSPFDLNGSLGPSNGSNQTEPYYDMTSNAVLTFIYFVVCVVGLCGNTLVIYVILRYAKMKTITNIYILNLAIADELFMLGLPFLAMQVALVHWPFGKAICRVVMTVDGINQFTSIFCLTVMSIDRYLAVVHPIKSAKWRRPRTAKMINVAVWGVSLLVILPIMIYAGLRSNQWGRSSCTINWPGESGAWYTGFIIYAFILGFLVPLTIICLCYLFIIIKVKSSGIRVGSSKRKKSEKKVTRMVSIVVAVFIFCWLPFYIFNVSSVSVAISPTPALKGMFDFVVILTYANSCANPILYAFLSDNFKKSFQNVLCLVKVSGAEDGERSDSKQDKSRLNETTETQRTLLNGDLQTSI

IC50 [1, 3] [nM]	SMILES	also measured
9.4 ± 1.3	C[C@@H](O)[C@@H]1NC(=O)[C@H](CCCCN)NC(=O)[C@@H](Cc2c[nH]c3ccccc23)NC(=O)[C@H](Cc2ccc(O)cc2)NC(=O)[C@@H](NC(=O)[C@@H](Cc2ccccc2)NC(=O)CCOCCOCCOCCOCCNC(=O)CN2CCN(CC(=O)O)CCN(CC(N)=O)CCN(CC(=O)O)CC2)CSSC[C@@H](C(=O)N[C@H](CO)[C@@H](C)O)NC1=O [PSC-PEG4-TOC]	
6.2 ± 1.1	C[C@@H](O)[C@@H]1NC(=O)[C@H](CCCCN)NC(=O)[C@@H](Cc2c[nH]c3ccccc23)NC(=O)[C@H](Cc2ccc(O)cc2)NC(=O)[C@@H](NC(=O)[C@@H](Cc2ccccc2)NC(=O)CN2CCN(CC(=O)O)CCN(CC(N)=O)CCN(CC(=O)O)CC2)CSSC[C@@H](C(=O)N[C@H](CO)[C@@H](C)O)NC1=O [PSC-TOC]	
	C[C@@H](O)[C@@H]1NC(=O)[C@H](CCCCN)NC(=O)[C@@H](Cc2c[nH]c3ccccc23)NC(=O)[C@H](Cc2ccc(O)cc2)NC(=O)[C@@H](NC(=O)[C@H](N)Cc2ccccc2)CSSC[C@@H](C(=O)N[C@H](CO)[C@@H](C)O)NC1=O [TOC, Tyr^3-octreotide, reference compound]	IC50 [1]: 3.1 ± 1.1 nM
	C[C@@H](O)[C@@H]1NC(=O)[C@H](CCCCN)NC(=O)[C@@H](Cc2c[nH]c3ccccc23)NC(=O)[C@H](Cc2ccc(O)cc2)NC(=O)[C@@H](NC(=O)[C@@H](Cc2ccccc2)NC(=O)CCOCCOCCNC(=O)CN2CCN(CC(=O)O)CCN(CC(N)=O)CCN(CC(=O)O)CC2)CSSC[C@@H](C(=O)N[C@H](CO)[C@@H](C)O)NC1=O [^212Pb-PSC-PEG2-TOC, metal not drawn]	hematologic toxicity by complete blood count (CBC) ([2]; doses up to 150 μCi, week 1, 2, and 4 post-administration): reversible hematologic toxicity; body weight change after injection ([2]; escalated doses up to 150 μCi, tumor-free mice): After an initial decrease in body weight in first days, the body weight of the treated mice increased gradually

SMILES	IC50 [1, 3] [nM]	also measured
C[C@@H](O)[C@@H]1NC(=O)[C@H](CCCCN)NC(=O)[C@@H](Cc2c[nH]c3ccccc23)NC(=O)[C@H](Cc2ccc(O)cc2)NC(=O)[C@@H](NC(=O)[C@@H](Cc2ccccc2)NC(=O)CCOCCOCCNC(=O)CN2CCN(CC(=O)O)CCN(CC(N)=O)CCN(CC(=O)O)CC2)CSSC[C@@H](C(=O)N[C@H](CO)[C@@H](C)O)NC1=O [PSC-PEG2-TOC]	5.3 ± 1.2	
